From patent US6147097A, “Imidazole derivatives as anti-HIV agents” (Shionogi & Co., Ltd., priority 1994, dated 2000)
In brackets after ≈: the same amount, converted by molar mass. Counter-ions that a name gives are not always drawn.

Assays:
[1] = system: HIV (HTLV-IIIB strain); assay: microbe, parasite or virus in culture; assay type: cell-based; settings: Human immunodeficiency virus 1, IIIB, MT4, 120 h; MT-4 cells, 60 pfu HIV per well, 37° C., 5 days, MTT; Tables 1 and 2; read-out: EC50
Summary of the method: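 MT-4 cells (3.5×10^4 per well) were infected with HIV at 60 pfu per well in the presence of diluted compound and incubated for 5 days at 37° C. Surviving cells were then measured by MTT reduction, with the formazan dissolved in acidified isopropanol containing Triton X-100.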

[2] = biological target: T1, purified recombinant HIV-1 reverse transcriptase (Human immunodeficiency virus type 1 group M subtype B, UniProt P04585); assay: reverse transcriptase inhibition, poly(rA)/(dT) template primer, [3H]dTTP uptake; assay type: biochemical
T1 construct: purified recombinant HIV-1 reverse transcriptase; made in house; host or cells: Escherichia coli
Summary of the method: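 Inhibition reported as percent reduction of [3H]dTTP incorporation relative to solvent control, after 1 h at 37 °C at pH 8.3. Recombinant RT from E. coli, poly(rA) template with oligo(dT) primer, 4 μM unlabeled dTTP as substrate; product collected on DEAE filter mats.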

[3] = cytotoxicity in MT-4 cells (MTT, culture medium in place of HIV); assay type: cell-based; settings: human, mt-4 cells
Summary of the method: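 MT-4 cells (3.5×10^4 per well) exposed to diluted compound with culture medium added instead of HIV, 5 days at 37° C in CO2. MTT added for 1 h, formazan dissolved in Triton X-100/acidified isopropanol. OD read at 560 nm (690 nm reference) and compared with control.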

CC(C)c1nc(CO)n(Cc2ccccc2N)c1Sc1cc(Cl)cc(Cl)c1 [Compound I-119, 1-(o-aminobenzyl)-5-(3,5-dichlorophenylthio)-2-hydroxymethyl-4-isopropyl-1H-imidazole]
EC50 [1]: 0.13 to 0.25 mg/L (≈ 0.308 to 0.592 µM) | IC50 [2]: 7.81 µM | CC50 at 120 h [3]: 3.1 mg/L (≈ 7.34 µM)

CC(C)c1nc(CO)n(Cc2cccc3ccccc23)c1Sc1cc(Cl)cc(Cl)c1.Cl [Compound I-120, 5-(3,5-dichlorophenylthio)-2-hydroxymethyl-4-isopropyl-1-(1-naphthylmethyl)-1H-imidazole hydrochloride]
EC50 [1]: 0.13 mg/L | IC50 [2]: 99.6 µM | CC50 at 120 h [3]: 100 mg/L

CC(C)c1nc(CO)n(CCc2ccccc2)c1Sc1cc(Cl)cc(Cl)c1 [Compound I-121, 5-(3,5-dichlorophenylthio)-2-hydroxymethyl-4-isopropyl-1-(2-phenylethyl)-1H-imidazole]
EC50 [1]: 0.06 mg/L (≈ 0.142 µM) | IC50 [2]: 85.2 µM | CC50 at 120 h [3]: 12.5 mg/L (≈ 29.7 µM)

CC(C)c1nc(CO)n(CCCc2ccccc2)c1Sc1cc(Cl)cc(Cl)c1 [Compound I-122, 5-(3,5-dichlorophenylthio)-2-hydroxymethyl-4-isopropyl-1-(3-phenylpropyl)-1H-imidazole]
EC50 [1]: 0.008 mg/L (≈ 0.0184 µM) | IC50 [2]: 7.12 µM | CC50 at 120 h [3]: 6.3 to 12.5 mg/L (≈ 14.5 to 28.7 µM)

CC(C)c1nc(CO)n(CCCCc2ccccc2)c1Sc1cc(Cl)cc(Cl)c1 [Compound I-123, 5-(3,5-dichlorophenylthio)-2-hydroxymethyl-4-isopropyl-1-(4-phenylbutyl)-1H-imidazole]
EC50 [1]: 0.06 mg/L (≈ 0.133 µM) | IC50 [2]: 77.4 µM | CC50 at 120 h [3]: 12.5 mg/L (≈ 27.8 µM)

CC(C)c1nc(CO)n(CCCCCc2ccccc2)c1Sc1cc(Cl)cc(Cl)c1 [Compound I-124, 5-(3,5-dichlorophenylthio)-2-hydroxymethyl-4-isopropyl-1-(5-phenylpentyl)-1H-imidazole]
EC50 [1]: 0.25 mg/L (≈ 0.539 µM) | IC50 [2]: > 216 µM | CC50 at 120 h [3]: 12.5 mg/L (≈ 27 µM)

CC(C)c1nc(CO)n(CCCCCCc2ccccc2)c1Sc1cc(Cl)cc(Cl)c1 [Compound I-125, 5-(3,5-dichlorophenylthio)-2-hydroxylmethyl-4-isopropyl-1-(6-phenlylhexyl)-1H-imidazole]
EC50 [1]: 0.5 to 1 mg/L (≈ 1.05 to 2.09 µM) | IC50 [2]: > 209 µM | CC50 at 120 h [3]: 12.5 mg/L (≈ 26.2 µM)

CC(C)c1nc(CO)n(Cc2cccs2)c1Sc1cc(Cl)cc(Cl)c1.Cl [Compound I-126, 5-(3,5-dichlorophenylthio)-2-hydroxymethyl-4-isopropyl-1-(2-thienylmethyl)-1H-imidazole hydrochloride]
EC50 [1]: 0.03 mg/L | IC50 [2]: 30.9 µM | CC50 at 120 h [3]: 12.5 to 25 mg/L

CC(C)c1nc(CO)n(Cc2ccsc2)c1Sc1cc(Cl)cc(Cl)c1 [Compound I-127, 5-(3,5-dichlorophenylthio)-2-hydroxymethyl-4-isopropyl-1-(13-thienylmethyl)-1H-imidazole hydrochloride]
EC50 [1]: 0.016 mg/L | IC50 [2]: 14.8 µM | CC50 at 120 h [3]: 12.5 to 25 mg/L

CC(C)c1nc(COC(N)=O)n(Cc2cnc3ccccc3c2)c1Sc1cc(Cl)cc(Cl)c1 [Compound I-128, 2-carbamoyloxymethyl-5-(3,5-dichlorophenylthio)-4-isopropyl-1-(quinolin-3-ylmethyl)-1H-imidazole]
EC50 [1]: < 0.008 mg/L | IC50 [2]: 5.38 µM | CC50 at 120 h [3]: > 100 mg/L

CC(C)c1nc(COC(N)=O)n(CCc2ccccn2)c1Sc1cc(Cl)cc(Cl)c1 [Compound I-129, 2-carbamoyloxymethyl-5-(3,5-dichlorophenylthio)-4-isopropyl-1-(2-(2-pyridyl)ethyl)-1H-imidazole]
EC50 [1]: 0.06 mg/L (≈ 0.129 µM) | IC50 [2]: 76.9 µM | CC50 at 120 h [3]: 12.5 to 25 mg/L (≈ 26.9 to 53.7 µM)

CC(C)c1nc(COC(N)=O)n(CCCc2ccccn2)c1Sc1cc(Cl)cc(Cl)c1 [Compound I-130, 2-carbamoyloxymethyl-5-(3,5-dichlorophenylthio)-4-isopropyl-1-(3-(2-pyridyl)propyl)-1H-imidazole]
EC50 [1]: < 0.008 mg/L | IC50 [2]: 3.96 µM | CC50 at 120 h [3]: 6.3 to 12.5 mg/L (≈ 13.1 to 26.1 µM)

CC(C)c1nc(COC(N)=O)n(Cc2ccc(=O)[nH]c2)c1Sc1cc(Cl)cc(Cl)c1 [Compound I-131, 2-carbamoyloxymethyl-5-(3,5-dichlorophenylthio)-1-(6-oxo-1,6-dihydro-pyridin-3-yl)methyl-4-isopropyl-1H-imidazoles]
EC50 [1]: 0.003 mg/L (≈ 0.00642 µM) | IC50 [2]: 2.78 µM | CC50 at 120 h [3]: 38.8 mg/L (≈ 83 µM)

Cc1ncccc1Cn1c(COC(N)=O)nc(C(C)C)c1Sc1cc(Cl)cc(Cl)c1 [Compound I-133, 2-carbamoyloxymethyl-5-(3,5-dichlorophenylthio)-4-isopropyl-1-(2-methylpyridin-3-ylmethyl)-1H-imidazole]
EC50 [1]: 0.008 mg/L (≈ 0.0172 µM) | IC50 [2]: 72.2 µM | CC50 at 120 h [3]: 12.5 mg/L (≈ 26.9 µM)

CC(C)c1nc(COC(N)=O)n(CCOC(N)=O)c1Sc1cc(Cl)cc(Cl)c1 [Compound I-134, 1-(2-carbamoyloxyethyl)-2-carbamoyloxymethyl-5-(3,5-dichlorophenylthio)-4-isopropyl-1H-imidazole]
EC50 [1]: 0.0013 mg/L (≈ 0.00291 µM) | IC50 [2]: 1.54 µM | CC50 at 120 h [3]: 12.5 to 25 mg/L (≈ 27.9 to 55.9 µM)

CC(C)c1nc(CC(N)=O)n(C)c1Sc1cc(Cl)cc(Cl)c1 [Compound I-135, 2-[5-(3,5-dichlorophenylthio)-4-isopropyl-1-methyl-1H-imidazol-2-yl] acetamide]
EC50 [1]: 0.016 to 0.03 mg/L (≈ 0.0447 to 0.0837 µM) | IC50 [2]: 10.6 µM | CC50 at 120 h [3]: 25 to 50 mg/L (≈ 69.8 to 140 µM)
